According to US10059723B2 (BIOMARIN PHARMACEUTICAL INC., priority 2011, dated 2018):

Experiments:
[1] = system: GM 15850 (lymphoblastoid cells line) cells; experiment: In-cell deacetylase inhibition assay (DAC assay); format: cell-based; conditions: Homo sapiens, GM15850; GM 15850 cells, 4 h incubation; read-out: 850 DAC (in-cell deacetylase inhibition IC50)
Procedure: Compound dilutions were made in 100% DMSO followed by parallel dilution in media with 2% DMSO. 10 μl of the compound dilutions were added to the cells to achieve the desired concentrations. The final concentration of DMSO in each well was 0.2%. The cells were incubated for 4 h at 37° C. with 5% CO2. After incubation, the cells were centrifuged down and the supernatant was removed. […] The reaction was stopped after 30 min incubation by addition of 50 μL developer (6 mg/mL trypsin in HDAC assay buffer). The reaction was allowed to develop for 30 min at room temperature and the fluorescence signal was detected using a fluorometer (Spectramax M2, Molecular Devices, Sunnyvale, Calif.) with excitation and emission wavelengths of 360 nm and 470 nm respectively. The data was fitted to a sigmoidal dose response equation with variable slope in GraphPad Prism 5.0 (GraphPad Software, La Jolla, Calif.) to determine IC50. Bottom and top of the curve were fixed to the average fluorescence response of control wells with no cells and cells but no compound respectively.

[2] = Brain penetration studies;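 further: compound levels in brain and plasma quantified by LC/MS/MS, sampled from pre-dose up to 4 h after dosing, three mice per dose and time point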; format: in vivo; conditions: C57/BL6/J, mouse, brain and plasma; mice, s.c. 5 or 50 mg/kg or i.v. 5 mg/kg; read-out: BPR (brain/plasma ratio, Cmax(brain)/Cmax(plasma))
Procedure: Test compounds were prepared at either 0.5 mg/ml or 5 mg/ml in 30% hydroxypropyl-β-cyclodextrin, 100 mM sodium acetate pH 5.5, 5% DMSO. C57/BL6/J mice were dosed s.c. at 5 mg/kg or 50 mg/kg, or i.v. at 5 mg/kg. Animals were euthanized at pre-dose, 5, 15, 30 min, 1, 2 and 4 hours post-dose and plasma and brain obtained. Three animals per dose per time points were used. The levels of compound in the plasma and brain were determined by standard LC/MS/MS methods. Brain/plasma ratio (BPR) was calculated as the ratio of the Cmax(brain)/Cmax(plasma).

[3] = system: HCT116 cells; experiment: Cell proliferation assay; format: cell-based; conditions: Homo sapiens, HCT-116, 72 h, read-out: Hct-116 (anti-proliferation IC50)
Procedure: HCT116 cells (5000 cells/well) in 80 μL McCoy's 5A medium containing 10% v/v FBS, 1% v/v penicillin/streptomycin and 1% v/v L-glutamine were incubated in 96-well plates with compounds at various concentrations for 72 h at 37° C. in a 5% CO2 atmosphere. The compound dilutions were made in 100% DMSO followed by parallel dilutions in media. The final concentration of DMSO in each well was 0.05%. After 72 h, 20 μL of Cell titer 96 aqueous one solution (Promega Corporation, Madison, Wis.) were added to the cells and the plate was incubated at 37° C. for another 4 h. The absorbance at 490 nm was then recorded on a 96-well plate reader (Spectramax M2, Molecular Devices, Sunnyvale, Calif.). Data analysis was performed in Microsoft Excel (Microsoft Corp, Redmond, Wash.).

[4] = molecular target: T1, HDAC1 (Homo sapiens, UniProt Q13547); experiment: HDAC activity inhibition assay, HDAC1; format: biochemical; conditions: 2 hours pre-incubation, Fluor-de-Lys substrate 10 μM
T1 construct: purchased BPS Bioscience 50051
T1 sequence (Q13547 whole entry): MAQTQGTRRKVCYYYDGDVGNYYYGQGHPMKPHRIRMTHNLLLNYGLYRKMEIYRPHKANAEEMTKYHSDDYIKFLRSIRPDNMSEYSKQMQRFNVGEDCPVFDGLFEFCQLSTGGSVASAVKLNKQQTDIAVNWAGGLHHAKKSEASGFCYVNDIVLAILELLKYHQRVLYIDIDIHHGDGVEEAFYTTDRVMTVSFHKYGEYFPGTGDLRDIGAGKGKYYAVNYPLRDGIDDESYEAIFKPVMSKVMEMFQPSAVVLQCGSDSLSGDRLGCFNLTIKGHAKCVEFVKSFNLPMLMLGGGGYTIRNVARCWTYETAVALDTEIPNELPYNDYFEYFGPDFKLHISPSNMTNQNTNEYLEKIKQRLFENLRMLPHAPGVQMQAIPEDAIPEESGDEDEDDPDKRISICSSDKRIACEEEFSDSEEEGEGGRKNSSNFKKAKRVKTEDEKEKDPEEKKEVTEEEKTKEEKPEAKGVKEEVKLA
Procedure: The HDAC activity inhibition assay was performed as follows to determine the ability of a test compound to inhibit HDAC enzymatic activity. […] Following pre-incubation, Fluor-de-Lys™ substrate (Enzo Life Sciences, Plymouth Meeting, Pa., BML-KI104-0050) was added to a final concentration of 10 μM and plates were further incubated for 30 minutes at room temperature. […] IC50 values were calculated by using a sigmoidal dose-response (variable slope) equation in GraphPad Prism® 5 for Windows (GraphPad Software, La Jolla, Calif.).

[5] = system: C57BL/6J male mice; experiment: Long term memory for object recognition; format: in vivo; conditions: s.c. 3, 10, 30 mg/kg
Procedure: C57BL/6J male mice were handled 1-2 min for 5 days and were habituated to the experimental apparatus 5 min a day for 4 consecutive days in the absence of objects. […] 24-h later mice were tested for memory retention (5 min) using the object recognition memory task (ORM), in which a familiar object was replaced with a novel one. All training and testing trials were videotaped and analyzed by individuals blind to the treatment condition and the genotype of subjects. A mouse was scored as exploring an object when its head was oriented toward the object within a distance of 1 cm or when the nose was touching the object. The relative exploration time was recorded and expressed by a discrimination index [DI=(tnovel−tfamiliar)/(tnovel+tfamiliar)×100].

| Structure (SMILES) | IC50 [1] [µM] | Kp [2] | IC50 [3] [µM] | IC50 [4] [µM] | dose dependence of the effect on long-term memory [5] |
| --- | --- | --- | --- | --- | --- |
| Cc1nc(/C=C/C(=O)Nc2ccccc2N)cs1 [A1] | > 20 | 0.5 to 1 | – | – | – |
| Cn1cc(/C=C/C(=O)Nc2ccccc2N)cn1 [A2] | 10 to 20 | 0.5 to 1 | > 20 | – | – |
| Cc1ncc(/C=C/C(=O)Nc2ccccc2N)s1 [A3] | > 20 | – | – | – | – |
| Cc1cc(/C=C/C(=O)Nc2ccccc2N)on1 [A5] | – | 0.2 to 0.5 | – | – | – |
| Nc1ccccc1NC(=O)/C=C/c1cnc2ccccn12 [A6, (E)-N-(2-aminophenyl)-3-(imidazo[1,2-a]pyridin-3-yl)acrylamide] | > 20 | 0.1 to 0.2 | 10 to 20 | – | – |
| Cn1ccc(/C=C/C(=O)Nc2ccccc2N)n1 [A7] | > 20 | 0.5 to 1 | – | – | – |
| Nc1ccccc1NC(=O)/C=C/c1cc2ccccn2n1 [A8] | 10 to 20 | 0.5 to 1 | – | – | – |
| Nc1ccccc1NC(=O)/C=C/c1cn2ccccc2n1 [A9] | > 20 | – | – | – | – |
| Nc1ccccc1NC(=O)/C=C/c1cn2ccnc2s1 [A10] | 10 to 20 | 0.2 to 0.5 | – | – | – |
| Nc1ccccc1NC(=O)/C=C/c1cnn(-c2ccccc2)c1 [A11] | – | > 1 | – | – | – |
| Cn1cnc(/C=C/C(=O)Nc2ccccc2N)c1 [A12] | > 20 | – | – | – | – |
| Nc1ccccc1NC(=O)/C=C/c1cnn(CC2CC2)c1 [B1] | 10 to 20 | – | – | – | – |
| Nc1ccccc1NC(=O)/C=C/c1cnn(C/C=C/c2ccc(F)cc2)c1 [B2] | 5 to 10 | – | – | – | – |
| Nc1ccccc1NC(=O)/C=C/c1cnn(CCOc2cc(F)cc(F)c2)c1 [B3, (E)-N-(2-aminophenyl)-3-(1-(2-(3,5-difluorophenoxy)ethyl)-1H-pyrazol-4-yl)acrylamide] | 1 to 5 | 0.2 to 0.5 | – | – | – |
| Nc1ccccc1NC(=O)/C=C/c1cnn(CCOc2ccc(C(F)(F)F)cc2)c1 [B4] | 10 to 20 | 0.2 to 0.5 | – | – | – |
| Nc1ccccc1NC(=O)/C=C/c1cnn(CCOc2cc(F)cc(Cl)c2)c1 [B5, (E)-N-(2-aminophenyl)-3-(1-(2-(3-chloro-5-fluorophenoxy)ethyl)-1H-pyrazol-4-yl)acrylamide] | 5 to 10 | 0.2 to 0.5 | – | – | – |
| Nc1ccccc1NC(=O)/C=C/c1cnn(CCOc2ccc(F)cc2)c1 [B6] | 5 to 10 | – | – | – | – |
| CCn1cc(/C=C/C(=O)Nc2ccccc2N)cn1 [C1] | > 20 | 0.5 to 1 | – | – | – |
| Cn1cc(/C=C/C(=O)Nc2ccc(F)cc2N)cn1 [C2] | – | – | – | > 20 | – |
| Cn1cc(/C=C/C(=O)Nc2cc(F)ccc2N)cn1 [C3] | > 20 | – | – | – | – |
| Nc1cc(F)ccc1NC(=O)/C=C/c1cnn(C/C=C/c2ccccc2)c1 [D2, (E)-N-(2-amino-4-fluorophenyl)-3-(1-cinnamyl-1H-pyrazol-4-yl)acrylamide] | > 20 | 0.2 to 0.5 | > 20 | – | no effect of dose |
| Nc1ccccc1NC(=O)/C=C/c1cnn(CCOc2ccccc2)c1 [D3, (E)-N-(2-aminophenyl)-3-(1-(2-phenoxyethyl)-1H-pyrazol-4-yl)acrylamide] | 1 to 5 | 0.2 to 0.5 | < 5 | – | – |
| Nc1ccccc1NC(=O)/C=C/c1cnn(Cc2ccccc2)c1 [D4] | 5 to 10 | 0.2 to 0.5 | > 20 | – | – |

| Structure (SMILES) | IC50 [1] [µM] | Kp [2] | IC50 [3] [µM] | IC50 [4] [µM] | dose dependence of the effect on long-term memory [5] |
| --- | --- | --- | --- | --- | --- |
| Nc1ccccc1NC(=O)/C=C/c1cnn(Cc2ccc(F)cc2)c1 [D5] | 5 to 10 | 0.1 to 0.2 | > 20 | – | – |
| Cc1cccc(Cn2cc(/C=C/C(=O)Nc3ccccc3N)cn2)n1 [D6] | 10 to 20 | < 0.1 | > 20 | – | – |
| Nc1ccccc1NC(=O)/C=C/c1cnn(CCc2ccccc2)c1 [D7] | 5 to 10 | 0.5 to 1 | < 5 | – | – |
| Nc1ccccc1NC(=O)/C=C/c1cnn(CCCc2ccccc2)c1 [D8] | 1 to 5 | 0.2 to 0.5 | < 5 | – | – |
| Nc1ccccc1NC(=O)/C=C/c1cnn(CCCCc2ccccc2)c1 [D9] | 1 to 5 | 0.5 to 1 | 5 to 10 | – | – |
| Nc1ccccc1NC(=O)/C=C/c1cnn(CC(F)(F)c2ccccc2)c1 [D10] | 5 to 10 | 0.5 to 1 | > 20 | – | – |
| Nc1ccccc1NC(=O)/C=C/c1cnn(CC/C=C/c2ccccc2)c1 [D11] | 1 to 5 | > 1 | – | – | – |
| CN(CCCn1cc(/C=C/C(=O)Nc2ccccc2N)cn1)c1ccccc1 [D12] | 1 to 5 | 0.5 to 1 | – | – | – |
| Nc1ccccc1NC(=O)/C=C/c1cnn(CCc2c[nH]c3ccccc23)c1 [D13] | 1 to 5 | < 0.1 | – | – | – |
| Nc1ccccc1NC(=O)/C=C/c1cnn(CCOCc2ccccc2)c1 [D14] | 5 to 10 | – | – | – | – |
| Nc1ccccc1NC(=O)/C=C/c1cnn(CCCOc2ccccc2)c1 [D15] | 1 to 5 | – | – | – | – |
| Nc1cc(F)ccc1NC(=O)/C=C/c1cnn(CCOc2ccccc2)c1 [D16] | 10 to 20 | – | – | – | – |
| CCOCc1cn2cc(/C=C/C(=O)Nc3ccccc3N)sc2n1 [E1, (E)-N-(2-aminophenyl)-3-(6-(ethoxymethyl)imidazo[2,1-b]thiazol-2-yl)acrylamide] | > 20 | – | – | – | – |
| Nc1ccccc1NC(=O)/C=C/c1csc(CC=Cc2ccccc2)n1 [E2, (E)-N-(2-aminophenyl)-3-(2-cinnamylthiazol-4-yl)acrylamide] | 10 to 20 | > 1 | > 20 | – | – |
| Nc1ccccc1NC(=O)c1ccc(C=C2CCN(C(=O)OCc3ccccc3)CC2)cc1 [F1] | > 20 | < 0.1 | – | – | – |
| Nc1ccccc1NC(=O)c1ccc(C=C2CCN(Cc3cccnc3)CC2)cc1 [F2] | 10 to 20 | > 1 | < 5 | – | – |
| Nc1ccccc1NC(=O)c1ccc(C=C2CN(Cc3ccc4cc[nH]c4c3)C2)cc1 [F3] | 1 to 5 | 0.2 to 0.5 | < 5 | – | – |
| Nc1ccccc1NC(=O)c1ccc(CC2CN(Cc3ccc4cc[nH]c4c3)C2)cc1 [F4] | 1 to 5 | 0.5 to 1 | < 5 | – | – |
| Nc1ccccc1NC(=O)c1ccc(C=C2CN(Cc3ccc4cc[nH]c4c3)C2)c(Cl)c1 [F5, 4-((1-((1H-Indol-6-yl)methyl)azetidin-3-ylidene)methyl)-N-(2-aminophenyl)-3-chlorobenzamide] | 5 to 10 | – | – | – | – |
| Nc1ccccc1NC(=O)c1ccc(C=C2CN(Cc3cccnc3)C2)c(Cl)c1 [F6] | 10 to 20 | – | – | – | – |
| CN1CCC(Cn2cc(/C=C/C(=O)Nc3ccccc3N)cn2)CC1 [G1, (E)-N-(2-aminophenyl)-3-(1-((1-methylpiperidin-4-yl)methyl)-1H-pyrazol-4-yl)acrylamide] | – | – | > 20 | – | – |
| Cc1nn(C/C=C/c2ccccc2)c(C)c1/C=C/C(=O)Nc1ccccc1N [G2, (E)-N-(2-aminophenyl)-3-(1-cinnamyl-3,5-dimethyl-1H-pyrazol-4-yl)acrylamide] | – | – | > 20 | – | – |
| Cc1ccc(C(=O)NCCCCCC(=O)Nc2ccc(F)cc2N)cc1 [RGFP 136, reference compound] | – | – | – | – | Dose dependent effects |
